Results: patent US11572402B2, “Method for promoting diversification of antibody variable region” (Chiome Bioscience Inc., priority 2017, dated 2023)
Entries after “also recorded” stand apart in the source; their conditions may differ.

Columns and labels:
BMAA4-2 cell line = test: Sequence change analysis using BMAA4-2 cell line according to flow cytometry (cIgM+_Sema3A− population); format: cell-based, chicken; settings: BMAA4-2 cells, FCM at 1 week of culture, versus negative control CS(−)
Protocol: A frozen stock of the BMAA4-2 cell line (3.0×10^6 cells) was awaken with 10 mL of CS(−) medium, using a 25 cm^2 Flask (Corning, 430639), and the cells were then cultured in a CO2 incubator (SANYO CO2 Incubator MCO-20AIC, 39.5° C., 5% CO2). On the following day, 500 μL each of a CS(−) medium, to which each drug had been added, was added into each well of a 48-well dish (Nunc, 150687), and the cells were then seeded thereon to a cell density of 6.0×10^4 cells/mL (wherein the cell concentration and the survival rate were measured using CASY cell counter (Nepa Gene)). After individual samples had been cultured for 2 days, the samples were subcultured under the same conditions to result in a cell density of 1.0×10^4 cells/mL. […] Thereafter, a plot, in which the vertical axis indicated APC (AF647-labeled Sema3A) and the longitudinal axis indicated PE (Mouse Anti-Chicken IgM-PE), was developed, and the percentage of PE+ (cIgM+)_APC− (Sema3A−) cells was then calculated.
Using the BMAA4-2 cell line, a system for screening for a diversification-promoting compound was constructed (FIG. 1). […] Thus, the percentage of cIgM+_Sema3A− populations under individual culture conditions is measured and compared according to FCM, so that the effect of promoting changes in the amino acid sequences (i.e., the effect of promoting the diversification of the amino acid sequences) can be evaluated.

hVEGF-A-#33 cell line = test: Screening for diversification-promoting compounds by FCM (hIgG+_hVEGF-A− population); format: cell-based, chicken; settings: hVEGF-A-#33 cells expressing human IgG, versus negative control CS(−)
Protocol: Frozen stocks of the hVEGF-A #33 cell line and the hVEGF-A #44 cell line (3.0×10^6 cells) were each awaken with a CS(-) medium, using a 25 cm^2 Flask (Corning, 430639), and were then cultured in a CO2 incubator (SANYO CO2 Incubator MCO-20AIC, 39.5° C., 5% CO2). On the following day, the cells were seeded on a 6-well dish (Nunc, 140675) to a cell density of 1.0×10^4 cells/mL (wherein the cell concentration and the survival rate were measured using CASY cell counter (Nepa Gene)). The cells were cultured in a CS(+) medium, in the presence or absence of a PI3Kα inhibitor ([…]: 10 μM, PI3Kα Inhibitor 2: 500 nM). Moreover, after the cells had been cultured for 2 days, individual samples were subcultured under the same conditions to result in a cell density of 1.0×10^4 cells/mL. Further, after completion of the culture for 3 days, individual samples were subcultured under the same conditions to result in a cell density of 6.0×10^4 cells/mL, and the culture was continued. After completion of the culture for 2 days (Day 7 of the culture), individual samples were centrifuged to remove a supernatant, and the residue was then suspended in a CS(+) medium supplemented with 1 μM FK-506 (hereinafter referred to as a “CS/FK medium”). The suspension was centrifuged again to remove a supernatant. This washing step was carried out repeatedly twice, and individual samples were then suspended in a CS/FK medium supplemented with AF647-labeled hVEGF-A (10 nM) and 2,000-fold diluted Goat Anti-Human IgG-PE. The light was shielded, and the obtained suspension was then reacted at 4° C. for 30 min. After completion of the staining, the reaction mixture was washed with a CS/FK medium twice, and each sample was then suspended in the CS/FK medium. Thereafter, using FACS Aria Fusion (BD), FCM and single cell sorting was carried out. Dead cells were removed using FSC-SSC plot. A plot, in which the vertical axis indicated AF647 (AF647-labeled hVEGF-A) and the longitudinal axis indicated PE (Goat Anti-Human IgG-PE), was developed, and the percentage of PE+(hIgG+)/AF647-(hVEGF-A-) cells was then calculated. In order to make a comparison regarding the number of cells with improved antigen-binding ability according to Affinity Maturation under individual conditions, Affinity Maturation Gate was established according to the following criteria. First, the plot was converted to a contour plot in FCM analysis, and a trapezoid gate having an inclination that was in parallel with the contour of a population in which the most cells were gathered (hereinafter referred to as a “main population”) was established. […] At that time, the vertex of the trapezoid gate was set to be overlapped with the mean value MFI of the main population, and then, a cell population having low antigen-binding ability and a cell population having a low expression level of antibody were set not to enter the gate. The percentage of clones with improved antigen-binding ability was calculated by counting the number of cells existing in this Affinity Maturation Gate and then dividing the obtained value by the total number of the analyzed cells. […]

Cc1nc(NC(=O)N2CCC[C@H]2C(N)=O)sc1-c1csc(C(C)(C)C)n1 [A66]
percentage of cIgM+_Sema3A− populations (sequence change-promoting action) (BMAA4-2 cell line): highest sequence change-promoting action
percentage of hIgG+_hVEGF-A− cell population (diversification-promoting effect) (hVEGF-A-#33 cell line): increased in comparison to the negative control (CS(−)); also recorded: highest diversification-promoting effects
